In BindingDB's records for doi:10.1021/jm034088d (Abbott Laboratories, 2003) one finds Ki data, which are given here for two compounds.

In this assay the target is Tyrosine-protein phosphatase non-receptor type 11, SHP-2 (Homo sapiens) (UniProt Q06124). Put plainly: Inhibitory activity against SH-domain containing phosphotyrosine phosphatase-2 (Tyrosine phosphatase SHP2) was determined.

Bounds are passed on as bounds.

Sequence of Tyrosine-protein phosphatase non-receptor type 11, SHP-2 (Homo sapiens) (Q06124 whole entry, looked up): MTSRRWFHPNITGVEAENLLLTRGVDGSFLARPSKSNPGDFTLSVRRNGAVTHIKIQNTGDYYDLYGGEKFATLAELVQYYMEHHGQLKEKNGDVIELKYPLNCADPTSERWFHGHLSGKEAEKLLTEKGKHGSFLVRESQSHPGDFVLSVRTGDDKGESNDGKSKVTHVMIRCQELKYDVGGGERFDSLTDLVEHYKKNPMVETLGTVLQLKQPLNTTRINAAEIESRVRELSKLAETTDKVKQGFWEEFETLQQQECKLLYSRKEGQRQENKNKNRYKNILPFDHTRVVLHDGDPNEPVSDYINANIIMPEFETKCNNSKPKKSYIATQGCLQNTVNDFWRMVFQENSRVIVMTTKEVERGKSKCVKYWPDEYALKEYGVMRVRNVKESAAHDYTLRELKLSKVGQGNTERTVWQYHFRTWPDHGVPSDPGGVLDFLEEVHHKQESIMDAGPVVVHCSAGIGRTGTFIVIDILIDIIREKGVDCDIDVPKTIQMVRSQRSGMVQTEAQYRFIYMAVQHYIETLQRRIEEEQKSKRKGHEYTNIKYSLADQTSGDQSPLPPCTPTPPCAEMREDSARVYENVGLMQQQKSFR

For `CCc1cc(CC(NC(C)=O)C(=O)NCCCCOc2cc(Cl)cc(O)c2C(=O)OC)ccc1N(C(=O)C(=O)O)c1ccccc1C(=O)O` (configuration not stated) [2-[4-(2-Acetylamino-3-{4-[(2-carboxy-phenyl)-oxalyl-amino]-3-ethyl-phenyl}-propionylamino)-butoxy]-4-chloro-6-hydroxy-benzoic acid methyl ester], the Ki (as a rule, the equilibrium dissociation constant of an inhibitor or competing ligand from its target) is greater than 3 µM. For `C=CCOC(=O)N[C@@H](Cc1ccc(N(C(=O)C(=O)O)c2ccccc2C(=O)O)cc1)C(=O)NCCCCOc1cccc(O)c1C(=O)OC` [(S)-2-(N-(4-(2-(allyloxycarbonylamino)-3-(4-(3-hydroxy-2-(methoxycarbonyl)phenoxy)butylamino)-3-oxopropyl)phenyl)-1-carboxyformamido)benzoic acid], the Ki is 96 µM.
